# Results: patent US6686371B2, “Non-steroidal, tetracylic compounds for estrogen-related treatments” (Akzo Nobel N.V., priority 2000, dated 2004)
# Assays:
# [1] = target: T1, human estrogen receptor β receptor (hERβ) (Homo sapiens, UniProt Q92731); experiment: competitive binding to cytoplasmic human estrogen receptor β from recombinant CHO cells; settings: % relative to 17β-estradiol, cytosol of recombinant CHO cells; for Binding ERβ: Table 2; for ERβ Binding (Potency Binding (ERβ)): Table 1
# T1 construct: expressed in transfected cells; host or cells: Chinese hamster ovary (CHO) cells, stably co-transfected with hERβ, rat oxytocin promoter and luciferase reporter
# T1 sequence (Q92731 whole entry): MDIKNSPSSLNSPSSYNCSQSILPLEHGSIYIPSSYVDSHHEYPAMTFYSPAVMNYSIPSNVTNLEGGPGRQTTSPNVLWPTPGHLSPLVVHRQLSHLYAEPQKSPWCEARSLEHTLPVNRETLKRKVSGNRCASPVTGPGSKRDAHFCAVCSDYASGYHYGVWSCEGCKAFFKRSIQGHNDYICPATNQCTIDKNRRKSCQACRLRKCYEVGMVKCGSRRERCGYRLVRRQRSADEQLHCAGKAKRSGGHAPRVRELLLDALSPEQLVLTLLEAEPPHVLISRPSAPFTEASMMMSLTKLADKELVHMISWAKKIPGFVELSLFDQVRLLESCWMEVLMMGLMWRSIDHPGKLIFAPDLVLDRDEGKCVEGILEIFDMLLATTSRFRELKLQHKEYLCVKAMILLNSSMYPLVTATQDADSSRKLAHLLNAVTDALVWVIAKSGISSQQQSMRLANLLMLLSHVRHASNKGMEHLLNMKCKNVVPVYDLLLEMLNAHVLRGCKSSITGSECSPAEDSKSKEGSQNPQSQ
# Method: (§1) Compounds are tested for their estrogen receptor activity in a binding assay and in a transactivation assay.
# (§2) Determination of competitive binding to cytoplasmic human estrogen receptor α or β from recombinant CHO cells is used to estimate the relative affinity (potency ratio) of a test compound for estrogen receptors present in the cytosol of recombinant Chinese hamster ovary (CHO) cells, stably transfected with the human estrogen receptor α (hERα) or β receptor (hERβ), as compared with estradiol (E2).
# [2] = target: T2, human estrogen receptor α (hERα) (Homo sapiens, UniProt P03372); experiment: competitive binding to cytoplasmic human estrogen receptor α from recombinant CHO cells; settings: % relative to 17β-estradiol; cytosol of recombinant CHO cells; Table 2
# T2 construct: expressed in transfected cells; host or cells: cytosol of recombinant Chinese hamster ovary (CHO) cells stably transfected with hERα
# T2 sequence (P03372 1-595): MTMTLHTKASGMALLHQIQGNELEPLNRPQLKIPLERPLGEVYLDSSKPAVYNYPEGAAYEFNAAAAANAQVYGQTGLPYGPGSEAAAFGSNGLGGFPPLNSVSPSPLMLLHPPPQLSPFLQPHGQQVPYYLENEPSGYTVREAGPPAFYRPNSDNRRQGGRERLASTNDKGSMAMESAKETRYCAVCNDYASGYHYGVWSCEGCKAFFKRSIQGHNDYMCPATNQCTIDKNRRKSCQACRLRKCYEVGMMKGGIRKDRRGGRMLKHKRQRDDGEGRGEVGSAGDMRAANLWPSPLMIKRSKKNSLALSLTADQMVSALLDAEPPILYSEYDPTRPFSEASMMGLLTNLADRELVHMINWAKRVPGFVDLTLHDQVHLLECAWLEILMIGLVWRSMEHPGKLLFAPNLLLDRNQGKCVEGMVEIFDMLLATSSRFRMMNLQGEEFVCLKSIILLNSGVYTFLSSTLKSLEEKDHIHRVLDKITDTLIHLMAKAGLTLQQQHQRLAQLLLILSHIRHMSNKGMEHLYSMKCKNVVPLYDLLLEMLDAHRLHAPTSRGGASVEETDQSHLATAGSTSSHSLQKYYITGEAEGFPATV
# Method: as §1, §2
# [3] = target: T1, human estrogen receptor β receptor (hERβ); experiment: transactivation assay, estrogenic activity, recombinant CHO cells co-transfected with hERβ, rat oxytocin promoter and luciferase reporter; assay type: cell-based; settings: for ERβ Transactivation (Potency Transactivation (ERβ)): potency % relative to 17β-estradiol, CHO cells, hERβ, luciferase reporter; for β/α ratio Transactivation: ratio of transactivation potency hERβ over hERα
# Method: as §1
# The estrogenic and antiestrogenic activity of compounds is determined in an in vitro bioassay with recombinant Chinese hamster ovary (CHO) cells stably co-transfected with the human estrogen receptor α (hERα) or β receptor (hERβ), the rat oxytocin promoter (RO) and the luciferase reporter gene (LUC). The estrogenic activity (potency ratio) of a test compound to stimulate the transactivation of the enzyme luciferase mediated via the estrogen receptors hERα or hERβ is compared with the standard estrogen estradiol. The antiestrogenic activity (potency ratio) of a test compound to inhibit the transactivation of the enzyme luciferase mediated via the estrogen receptors hERα or hERβ by the estrogen estradiol is compared with the standard ICI 164.384 (=(7α,17β)-N-butyl-3,17-dihydroxy-N-methylestra-1,3,5(10)-triene-7-undecanamide).
Compound,Binding ERβ [1],Binding ERα [2],melting point,ERβ Binding (Potency Binding (ERβ)) [1],ERβ Transactivation (Potency Transactivation (ERβ)) [3],β/α ratio Transactivation [3]
"Oc1ccc2c(c1)Cc1c-2nc2ccc(O)cc2c1Br [Compound 7b, 10-bromo-2,8-dihydroxy-11H-indeno[1,2-b]quinoline]",++ (between 1.5-3.5%),− (<0.3%),,,,
"CCCc1c2c(c(CCC)c3ccc(O)cc13)-c1ccc(O)cc1C2 [Compound 57, 2,8-dihydroxy-5,10-dipropyl-11H-benzo[b]fluorene]",,,250 °C,,,
"10-chloro-1,1-dimethyl-2,8-dihydroxy-11H-indeno[1,2-b]quinoline [Compound 7d]",,+++ (between 3.5-8%),,,,
"COc1ccc2c(c1)Cc1c-2nc2ccc(OC)cc2c1Br [Compound 2b, 10-bromo-2,8-dimethoxy-11H-indeno[1,2-b]quinoline]",,,,++ (between 2-10%),+ (between 0.1-4%),++ (between 10-30)
"Oc1ccc2c(c1)Cc1c-2cc2ccc(O)cc2c1Br [Compound 67b, 2,8-dihydroxy-10-bromo-11H-benzo[b]fluorene]",,,,+++ (>10%),+++ (>10%),+++ (>30)
"Oc1ccc2c(c1)Cc1c-2nc2ccc(O)cc2c1-c1ccccc1 [Compound 5, 10-phenyl-2,8-dihydroxy-11H-indeno[1,2-b]quinoline]",,,,++ (between 2-10%),− (<0.1%),
"Oc1ccc2c(c1)Cc1c-2cc2ccc(O)cc2c1Cl [Compound 67a, 2,8-dihydroxy-10-chloro-11H-benzo[b]fluorene]",,,,+++ (>10%),+++ (>10%),+++ (>30)
"Oc1ccc(-c2c3c(cc4ccc(O)cc24)-c2ccc(O)cc2CC3)cc1 [Compound 16a, 3,9-dihydroxy-7-(4-hydroxyphenyl)-5,6-dihydro-benz[a]anthracene]",,,272 °C,,,
"CCc1c2c(c(CC)c3ccc(O)cc13)-c1ccc(O)cc1C2 [Compound 47, 2,8-dihydroxy-5,10-diethyl-11H-benzo[b]fluorene]",,,255 °C (dec.),,,
"CCCC(=O)Oc1ccc2c(c1)Cc1c-2nc2ccc(OC(=O)CCC)cc2c1Br [Compound 2d, Dibutyryl Ester of 10-bromo-2,8-dihydroxy-11H-indeno[1,2-b]quinoline]",,,,,+ (between 0.1-4%),++ (between 10-30)
"Oc1ccc2c(c1)Cc1c-2nc2ccc(O)cc2c1Cl [Compound 7a, 10-chloro-2,8-dihydroxy-11H-indenol[1,2-b]quinoline]",+++ (between 3.5-8%),− (<0.3%),,,,
"Oc1ccc2nc3c(c(Cl)c2c1)-c1cccc(O)c1CC3 [Compound 8, 12-chloro-4,10-dihydroxy-5,6-dihydro-benz[a]acridine]",++ (between 1.5-3.5%),++ (between 1.5-3.5%),,,,
"Oc1ccc2c(c1)Cc1c-2cc2ccc(O)cc2c1I [Compound 67c, 2,8-dihydroxy-10-iodo-11H-benzo[b]fluorene]",,,,+++ (>10%),+++ (>10%),+++ (>30)
"Oc1ccc2c(c1)CCc1c-2cc2ccc(O)cc2c1C1CCCC1 [Compound 16, 3,9-dihydroxy-7-cyclopentyl-5,6-dihydro-benz[a]anthracene]",,,233 to 235 °C,,,
"Cc1c2c(cc3ccc(O)cc13)-c1ccc(O)cc1C2 [Compound 67d, 2,8-dihydroxy-10-methyl-11H-benzo[b]fluorene]",,,265 °C,++ (between 2-10%),+ (between 0.1-4%),++ (between 10-30)
"Oc1ccc2c(c1)Cc1c-2cc2ccc(O)cc2c1C=C(F)F [Compound 50, 2,8-dihydroxy-10-(2,2-difluoro-ethenyl)-11H-benzo[b]fluorene]",,,211 to 212 °C,,,
"Oc1ccc2c(c1)CCc1c-2nc2ccc(O)cc2c1Cl [Compound 10, 7-chloro-3,9-dihydroxy-5,6-dihydro-benz[c]acridine]",++++ (>8%),++++ (>8%),,,,
"CCCC(=O)Oc1ccc2c(c1)Cc1c-2nc2ccc(OC(=O)CCC)cc2c1Cl [Compound 2c, Dibutyryl Ester of 10-chloro-2,8-dihydroxy-1H-indeno[1,2-b]quinoline]",,,,,++ (between 4-10%),++ (between 10-30)
"COc1ccc2c(c1)Cc1c-2nc2ccc(OC)cc2c1Cl [Compound 2a, 10-chloro-2,8-dimethoxy-11H-indeno[1,2-b]quinoline]",,,,++ (between 2-10%),++ (between 4-10%),+ (between 3.5-10)
"Oc1ccc2c(c1)Cc1cc3cc(O)ccc3c(Cl)c1-2 [Compound 60, 2,8-dihydroxy-5-chloro-11H-benzo[b]fluorene]",++++ (>8%),++ (between 1.5-3.5%),,+++ (>10%),+++ (>10%),+++ (>30)
"Oc1ccc2c(c1)Cc1cc3ccc(O)cc3cc1-2 [Compound 25, 2,7-dihydroxy-11H-benzo[b]fluorene]",,,,++ (between 2-10%),+ (between 0.1-4%),− (<3.5)
"CCc1c2c(c(Cl)c3ccc(O)cc13)-c1ccc(O)cc1C2 [Compound 40, 2,8-dihydroxy-5-chloro-10-ethyl-11H-benzo[b]fluorene]",,,250 to 251 °C,,,
"Cc1c(O)ccc2c1Cc1c-2nc2ccc(O)cc2c1Cl [Compound 7c, 10-chloro-1-methyl-2,8-dihydroxy-11H-indeno[1,2-b]quinoline]",++ (between 1.5-3.5%),+ (between 0.1-1.5%),,,,
"Oc1ccc2c(c1)Cc1c-2cc2ccc(O)cc2c1C(F)(F)F [Compound 67e, 2,8-dihydroxy-10-trifluoromethyl-11H-benzo[b]fluorene]",,,,+++ (>10%),++ (between 4-10%),++ (between 10-30)
"CCCc1c2c(c(Cl)c3ccc(O)cc13)-c1ccc(O)cc1C2 [Compound 22, 2,8-dihydroxy-5-chloro-10-propyl-11H-benzo[b]fluorene]",,,223 to 224 °C,,,
"CC(C)(C)C(=O)Oc1ccc2c(c1)Cc1c-2cc2ccc(OC(=O)C(C)(C)C)cc2c1Cl [Compound 68a, di-pivaloyl Ester of 2,8-dihydroxy-10-chloro-11H-benzo[b]fluorene]",,,,,++ (between 4-10%),+++ (>30)
"CC1c2cc(O)ccc2-c2c1cc1cc(O)ccc1c2Cl (stereo not drawn) [Compound 54, 2,8-dihydroxy-5-chloro-11-methyl-11H-benzo[b]fluorene]",,,215 to 220 °C,,,
"Oc1ccc2c(c1)Cc1cc3cc(O)ccc3cc1-2 [Compound 69, 2,8-dihydroxy-11H-benzo[b]fluorene]",,,,++ (between 2-10%),+ (between 0.1-4%),+ (between 3.5-10)
